Laboratory results reported in PMC10215804, “Exploring Alternative Pathways to Target Bacterial Type II Topoisomerases Using NBTI Antibacterials: Beyond Halogen-Bonding Interactions” (Antibiotics, 2023).
Like-named read-outs stand apart in the source and are kept apart here.

How the values were obtained:
S. aureus DNA gyrase = target: T1, S. aureus DNA gyrase (Staphylococcus aureus, UniProt P20831); experiment: biochemical; conditions: supercoiling inhibition; mean of two independent measurements ± SD
T1 construct: purchased Inspiralis (Norwich, UK)
Protocol: (§1) To determine the IC50 values of the compounds for S. aureus and E. coli, a DNA gyrase supercoiling high-throughput plate assay and a topoIV relaxation high-throughput plate assay were performed. Assay kits and black streptavidin-coated 96-well microtiter plates are available from Inspiralis (Norwich, UK). For pre-screening, an inhibitor concentration of 100 μM was used. […] A nonlinear regression-based fit of the inhibition curves was used, with the log [inhibitor] versus slope of the reaction variables (four parameters) and a symmetric equation. […] To determine IC50 values, two independent repetitions were performed and the average was calculated.

S. aureus topoIV = target: T2, S. aureus topoIV (Staphylococcus aureus, UniProt P0C1U9); experiment: biochemical; conditions: relaxation inhibition; mean of two independent measurements ± SD
T2 construct: purchased Inspiralis (Norwich, UK)
Protocol: as §1

E. coli DNA gyrase = target: T3, E. coli DNA gyrase (Escherichia coli, UniProt P0AES4); experiment: DNA gyrase supercoiling inhibition assay (high-throughput plate assay); type: biochemical
T3 construct: purchased Inspiralis (Norwich, UK)
Protocol: as §1

E. coli topoIV = target: T4, E. coli topoIV (Escherichia coli, UniProt P0AFI2); experiment: topoIV relaxation inhibition assay (high-throughput plate assay); type: biochemical
T4 construct: purchased Inspiralis (Norwich, UK)
Protocol: as §1

human topoisomerase IIα = target: T5, human topoisomerase IIα (Homo sapiens, UniProt P11388); experiment: human topoisomerase II alpha relaxation high-throughput assay (selectivity); type: biochemical; conditions: residual activity at 100 µM compound; mean ± SD, two independent experiments; read-out: Human TopoIIα (% RA at 100 µM)
T5 construct: purchased Inspiralis (Norwich, UK)
Protocol: For selectivity determination, a human topoisomerase II alpha relaxation high-throughput assay was used. The assay kits and black streptavidin-coated 96-well microtiter plates are available from Inspiralis (Norwich, UK). Two independent measurements were performed with an inhibitory concentration of 100 µM. Raw data were calculated as the mean ± SD percentage of the residual enzyme activity.

A. baumannii = experiment: MIC, broth microdilution; type: cell-based; conditions: Acinetobacter baumannii
Protocol: (§2) For the determination of minimum inhibitory concentrations (MIC), the broth microdilution method was used in 96-well plate format, according to the guidelines of the Clinical and Laboratory Standards Institute and the recommendations of the European Committee on Antimicrobial Susceptibility Testing (EUCAST). The dilutions of the bacterial suspension of the specific bacterial strain, corresponding to the 0.5 McFarland turbidity standard, were prepared with […] Mueller–Hinton broth with TES (Thermo Fisher Scientific) to obtain an end inoculum of 10^5 CFU/mL. The compounds were dissolved in DMSO and mixed with the inoculum. […] The MIC was determined as the lowest concentration of antibiotic that prevented visible bacterial growth. Tetracycline was used as a positive control on each test plate.

E. coli (ATCC 25922) = experiment: MIC, broth microdilution; type: cell-based; conditions: Escherichia coli
Protocol: as §2

E. coli D22 = experiment: MIC, broth microdilution; type: cell-based; conditions: Escherichia coli
Protocol: as §2

E. coli ESBL QA-11.3 = experiment: MIC, broth microdilution; type: cell-based; conditions: Escherichia coli
Protocol: as §2

E. coli N43 (CGSC# 5583) = experiment: MIC, broth microdilution; type: cell-based; conditions: Escherichia coli
Protocol: as §2

E. faecalis RDK 057 = experiment: MIC, broth microdilution; type: cell-based; conditions: Enterococcus faecalis
Protocol: as §2

K. pneumoniae = experiment: MIC, broth microdilution; type: cell-based; conditions: Klebsiella pneumoniae
Protocol: as §2

P. aeruginosa RDK 184 = experiment: MIC, broth microdilution; type: cell-based; conditions: Pseudomonas aeruginosa
Protocol: as §2

S. aureus (ATCC 29213) = experiment: MIC, broth microdilution; type: cell-based; conditions: Staphylococcus aureus
Protocol: as §2

[1] = Metabolic activity assessment (cytotoxicity), CellTiter 96 Aqueous One; type: cell-based; conditions: human, 72 h treatment, means of three independent measurements ± SD
Protocol: HUVEC (ATCC® CRL-1730™) and HepG2 (ATCC® HB-8065™) cell lines were cultured in Dulbecco’s Modified Eagle Medium (DMEM; Sigma-Aldrich, St. Louis, MO, USA) supplemented with 10% heat-deactivated FBS (Gibco, Grand Island, NE, USA), 2 mM L-glutamine, 100 U/mL penicillin, 100 μg/mL streptomycin (all from Sigma-Aldrich, St. Louis, MO, USA) in a humidified chamber at 37 °C and 5% CO2. The experiments were carried out on passages 4–7 for both cell lines. The tested compounds were dissolved in DMSO and further diluted in culture medium to a desired final concentration. The cells were then seeded into 96-well plates at 5 × 10^4 cells/mL (100 μL/well) or 8 × 10^4 cells/mL (100 μL/well) for HUVEC and HepG2, respectively. The cells were then incubated for 24 h to allow attachment onto the wells. The cells were treated with 1 μM and 50 μM of each compound of interest, or the corresponding vehicle as control. […] Their metabolic activity was assessed after 72 h treatment using a CellTiter 96 Aqueous One Solution Cell Proliferation Assay (Promega, Madison, WI, USA), in accordance with the manufacturer’s instructions. The absorbance was measured at 492 nm on an automated microplate reader, Tecan Spark (Tecan Group Ltd., Männedorf, CH, Switzerland). Data are presented as the percentage of metabolic activity of control cells stimulated with vehicle, or as an IC50 value (mean ± SD) from three independent experiments, each conducted in triplicate (for screening) or duplicate (for IC50 determination). IC50 values were calculated using a non-linear regression model and with Graph Pad Prism 9 software.

[2] = 20 h, read-out: MIC (μM) A. baumannii
[3] = ATCC25922, 20 h, read-out: MIC (μM) E. coli (ATCC 25922)
[4] = ATCC25922, read-out: MIC E. coli (ATCC 25922)
[5] = D22, 20 h, read-out: MIC (μM) E. coli D22
[6] = ESBLQA11.3, 20 h, read-out: MIC (μM) E. coli ESBL QA:11.3
[7] = ESBLQA11.3, read-out: MIC E. coli ESBL QA-11.3
[8] = 20 h, read-out: MIC (μM) E. coli N43
[9] = read-out: MIC E. coli N43 (CGSC# 5583)
[10] = RDK057, read-out: MIC (μM) E. faecalis DRK 057
[11] = RDK057, read-out: MIC E. faecalis RDK 057
[12] = 20 h, read-out: MIC (μM) K. pneumoniae
[13] = RDK184, 20 h, read-out: MIC (μM) P. aeruginosa RDK 184
[14] = RDK184, read-out: MIC P. aeruginosa RDK 184
[15] = ATCC29213, 20 h, read-out: MIC (μM) S. aureus (ATCC 29213)
[16] = ATCC29213, read-out: MIC S. aureus (ATCC 29213)

T3 sequence (P0AES4 whole entry): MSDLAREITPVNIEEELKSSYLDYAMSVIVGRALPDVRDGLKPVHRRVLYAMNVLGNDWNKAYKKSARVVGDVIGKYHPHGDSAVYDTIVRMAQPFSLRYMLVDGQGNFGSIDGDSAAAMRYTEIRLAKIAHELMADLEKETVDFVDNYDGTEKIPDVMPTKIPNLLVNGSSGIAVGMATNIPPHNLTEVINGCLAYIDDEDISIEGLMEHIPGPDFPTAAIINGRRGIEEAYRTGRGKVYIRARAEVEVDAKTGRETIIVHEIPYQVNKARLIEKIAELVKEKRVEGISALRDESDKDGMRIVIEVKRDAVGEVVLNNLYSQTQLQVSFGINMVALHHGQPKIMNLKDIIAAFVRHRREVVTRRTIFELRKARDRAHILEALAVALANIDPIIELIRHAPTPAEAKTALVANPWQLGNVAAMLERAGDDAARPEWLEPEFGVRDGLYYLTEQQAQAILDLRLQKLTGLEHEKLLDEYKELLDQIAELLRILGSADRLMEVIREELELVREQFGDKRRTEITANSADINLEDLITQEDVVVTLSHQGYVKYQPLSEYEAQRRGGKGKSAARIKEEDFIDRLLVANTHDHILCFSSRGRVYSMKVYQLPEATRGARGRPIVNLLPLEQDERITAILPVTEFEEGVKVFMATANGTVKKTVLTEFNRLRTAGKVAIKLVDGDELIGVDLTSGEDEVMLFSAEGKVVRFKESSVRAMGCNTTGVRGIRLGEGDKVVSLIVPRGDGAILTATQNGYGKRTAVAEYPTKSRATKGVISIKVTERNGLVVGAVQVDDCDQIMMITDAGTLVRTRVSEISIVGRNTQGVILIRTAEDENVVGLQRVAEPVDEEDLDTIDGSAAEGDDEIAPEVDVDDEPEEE
T2 sequence (P0C1U9 whole entry): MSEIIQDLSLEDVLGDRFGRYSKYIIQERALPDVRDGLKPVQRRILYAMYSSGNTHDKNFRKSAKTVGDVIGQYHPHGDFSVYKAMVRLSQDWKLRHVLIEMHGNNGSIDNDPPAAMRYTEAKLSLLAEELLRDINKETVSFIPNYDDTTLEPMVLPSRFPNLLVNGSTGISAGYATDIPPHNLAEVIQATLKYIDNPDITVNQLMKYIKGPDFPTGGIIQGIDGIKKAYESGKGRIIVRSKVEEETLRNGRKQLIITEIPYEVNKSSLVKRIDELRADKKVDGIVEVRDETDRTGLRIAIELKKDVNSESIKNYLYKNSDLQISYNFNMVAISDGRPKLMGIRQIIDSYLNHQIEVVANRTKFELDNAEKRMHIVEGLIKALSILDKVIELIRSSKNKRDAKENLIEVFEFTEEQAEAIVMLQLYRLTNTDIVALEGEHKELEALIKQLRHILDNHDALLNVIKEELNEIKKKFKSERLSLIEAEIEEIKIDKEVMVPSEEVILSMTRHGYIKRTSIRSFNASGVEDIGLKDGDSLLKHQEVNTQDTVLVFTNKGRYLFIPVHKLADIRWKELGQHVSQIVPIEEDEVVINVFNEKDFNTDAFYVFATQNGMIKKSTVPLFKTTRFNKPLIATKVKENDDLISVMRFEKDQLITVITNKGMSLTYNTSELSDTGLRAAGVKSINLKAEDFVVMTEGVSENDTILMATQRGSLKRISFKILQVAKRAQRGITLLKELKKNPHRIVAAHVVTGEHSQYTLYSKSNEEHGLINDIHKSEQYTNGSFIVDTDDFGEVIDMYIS
T2 sequence (P0C1S7 whole entry partner): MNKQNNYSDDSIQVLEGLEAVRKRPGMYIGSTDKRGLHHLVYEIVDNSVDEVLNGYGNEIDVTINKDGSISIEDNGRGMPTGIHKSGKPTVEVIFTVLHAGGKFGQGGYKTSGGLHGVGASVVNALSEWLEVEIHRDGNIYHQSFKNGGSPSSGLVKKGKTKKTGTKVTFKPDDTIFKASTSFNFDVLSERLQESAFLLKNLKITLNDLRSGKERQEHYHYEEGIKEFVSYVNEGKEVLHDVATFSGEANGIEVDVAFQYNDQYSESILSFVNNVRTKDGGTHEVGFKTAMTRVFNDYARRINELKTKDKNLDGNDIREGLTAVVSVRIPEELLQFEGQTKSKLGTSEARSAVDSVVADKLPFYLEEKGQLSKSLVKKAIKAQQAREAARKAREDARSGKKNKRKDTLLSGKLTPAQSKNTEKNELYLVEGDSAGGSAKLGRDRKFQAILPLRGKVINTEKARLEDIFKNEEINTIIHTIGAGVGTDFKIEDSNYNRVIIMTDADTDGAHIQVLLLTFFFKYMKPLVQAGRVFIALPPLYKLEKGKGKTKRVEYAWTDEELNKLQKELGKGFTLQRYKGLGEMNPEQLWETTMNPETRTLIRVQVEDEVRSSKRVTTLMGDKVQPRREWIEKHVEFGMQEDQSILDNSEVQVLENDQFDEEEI
T5 sequence (P11388 whole entry): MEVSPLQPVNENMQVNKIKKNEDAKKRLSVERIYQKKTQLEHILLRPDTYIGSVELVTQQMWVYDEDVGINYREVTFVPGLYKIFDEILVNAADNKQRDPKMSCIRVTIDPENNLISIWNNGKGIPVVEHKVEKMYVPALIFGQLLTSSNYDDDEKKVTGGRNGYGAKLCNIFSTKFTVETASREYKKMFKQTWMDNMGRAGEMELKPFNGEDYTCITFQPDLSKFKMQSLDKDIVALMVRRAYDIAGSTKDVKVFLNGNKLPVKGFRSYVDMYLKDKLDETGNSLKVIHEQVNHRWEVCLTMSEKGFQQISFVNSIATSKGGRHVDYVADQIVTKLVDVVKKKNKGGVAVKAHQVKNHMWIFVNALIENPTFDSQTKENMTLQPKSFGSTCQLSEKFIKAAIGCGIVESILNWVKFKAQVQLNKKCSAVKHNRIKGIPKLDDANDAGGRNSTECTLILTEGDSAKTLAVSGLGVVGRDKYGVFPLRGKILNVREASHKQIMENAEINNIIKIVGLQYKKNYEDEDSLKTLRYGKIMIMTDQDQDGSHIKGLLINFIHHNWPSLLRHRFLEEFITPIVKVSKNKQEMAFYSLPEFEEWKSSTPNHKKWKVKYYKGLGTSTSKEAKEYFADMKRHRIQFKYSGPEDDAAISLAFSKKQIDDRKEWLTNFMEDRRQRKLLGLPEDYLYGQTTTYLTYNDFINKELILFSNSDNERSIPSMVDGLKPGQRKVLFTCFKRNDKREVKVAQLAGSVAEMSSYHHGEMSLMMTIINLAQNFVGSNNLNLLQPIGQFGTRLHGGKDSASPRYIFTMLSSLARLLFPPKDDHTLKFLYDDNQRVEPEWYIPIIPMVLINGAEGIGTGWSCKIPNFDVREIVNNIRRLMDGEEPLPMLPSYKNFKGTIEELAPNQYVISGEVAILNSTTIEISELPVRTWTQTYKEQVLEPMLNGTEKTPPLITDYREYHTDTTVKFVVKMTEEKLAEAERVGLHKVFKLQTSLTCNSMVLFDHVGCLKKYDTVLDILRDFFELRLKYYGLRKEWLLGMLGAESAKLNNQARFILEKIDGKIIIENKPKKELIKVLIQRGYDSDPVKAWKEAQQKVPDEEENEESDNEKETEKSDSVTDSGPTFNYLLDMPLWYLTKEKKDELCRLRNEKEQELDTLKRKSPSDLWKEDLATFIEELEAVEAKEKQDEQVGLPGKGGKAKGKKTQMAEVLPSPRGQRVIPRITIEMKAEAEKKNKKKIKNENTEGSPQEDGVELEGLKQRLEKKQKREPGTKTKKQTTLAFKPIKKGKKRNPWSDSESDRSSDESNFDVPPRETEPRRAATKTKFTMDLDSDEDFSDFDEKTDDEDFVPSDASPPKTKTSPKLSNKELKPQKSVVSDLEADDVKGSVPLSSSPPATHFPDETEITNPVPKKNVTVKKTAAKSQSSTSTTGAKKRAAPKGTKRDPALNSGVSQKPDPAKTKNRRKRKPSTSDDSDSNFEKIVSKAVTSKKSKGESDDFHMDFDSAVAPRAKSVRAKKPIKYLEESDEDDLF

Structure (SMILES)	IC50 (S. aureus DNA gyrase) [µM]	IC50 (S. aureus topoIV) [µM]	IC50 (E. coli DNA gyrase) [µM]	IC50 (E. coli topoIV) [µM]	remaining activity at 100 µM (human topoisomerase IIα) [%]	MIC (A. baumannii; [2]) [µM]	MIC (A. baumannii; read-out: MIC A. baumannii) [µg/mL]	MIC (E. coli (ATCC 25922); [3]) [µM]	MIC (E. coli (ATCC 25922); [4]) [µg/mL]	MIC (E. coli D22; [5]) [µM]	MIC (E. coli D22; D22, read-out: MIC E. coli D22) [µg/mL]	MIC (E. coli ESBL QA-11.3; [6]) [µM]	MIC (E. coli ESBL QA-11.3; [7]) [µg/mL]	MIC (E. coli N43 (CGSC# 5583); [8]) [µM]	MIC (E. coli N43 (CGSC# 5583); [9]) [µg/mL]	MIC (E. faecalis RDK 057; [10]) [µM]	MIC (E. faecalis RDK 057; [11]) [µg/mL]	MIC (K. pneumoniae; [12]) [µM]	MIC (K. pneumoniae; read-out: MIC K. pneumoniae) [µg/mL]	MIC (P. aeruginosa RDK 184; [13]) [µM]	further results
COc1ccc2nccc(OCC3CCC(NCc4ccc(N)cc4)CC3)c2n1 (centres unmarked) [Compound 10, 4-(((4-(((6-methoxy-1,5-naphthyridin-4-yl)oxy)methyl)cyclohexyl)amino)methyl)aniline]	> 100	> 100	> 100	> 100	99 ± 1	> 328	> 128	> 328	> 128	> 328	> 128	> 328	> 128	> 328	> 128	> 328	> 128	> 328	> 128	> 328	MIC (P. aeruginosa RDK 184; [14]): > 128 µg/mL; MIC (S. aureus (ATCC 29213); [15]): > 328 µM; MIC (S. aureus (ATCC 29213); [16]): > 128 µg/mL; IC50 at 72 h ([1]; HUVEC cells (ATCC CRL-1730)): > 50 µM; IC50 at 72 h ([1]; HepG2 cells (ATCC HB-8065)): > 50 µM
COc1ccc2nccc(OCC3CCC(NCc4ccc(N)cc4)CO3)c2n1 (centres unmarked) [Compound 11, N-(4-Aminobenzyl)-6-(((6-methoxy-1,5-naphthyridin-4-yl)oxy)methyl)tetrahydro-2H-pyran-3-amine]	> 100	> 100	> 100	> 100	100	> 328	> 128	> 328	> 128	> 328	> 128	> 328	> 128	> 328	> 128	> 328	> 128	> 328	> 128	> 328	MIC (P. aeruginosa RDK 184; [14]): > 128 µg/mL; MIC (S. aureus (ATCC 29213); [15]): > 328 µM; MIC (S. aureus (ATCC 29213); [16]): > 128 µg/mL; IC50 at 72 h ([1]; HUVEC cells (ATCC CRL-1730)): > 50 µM; IC50 at 72 h ([1]; HepG2 cells (ATCC HB-8065)): > 50 µM
